Reference: the NIST ThermoML archive (doi:10.1021/acs.jced.7b00750)
± gives the expanded uncertainty stated by the source.

Columns and labels:
[1] = 100 kPa, Liquid, Vibrating tube method
[2] = xn = mol fraction of the nth substance listed; conditions: 100 kPa, Liquid, Vibrating tube method, x2 = 0

O [water]
[1]
Conditions	mass density [kg/m3]
274.15 K	999.899 ± 0.11
275.15 K	999.94 ± 0.11
276.15 K	999.964 ± 0.11
277.15 K	999.972 ± 0.13
278.15 K	999.964 ± 0.11
279.15 K	999.94 ± 0.11
280.15 K	999.901 ± 0.11
281.15 K	999.848 ± 0.11
282.15 K	999.781 ± 0.11
283.15 K	999.699 ± 0.11
323.15 K	988.03 ± 0.11
333.15 K	983.191 ± 0.11

O [water] + CNC(N)=O
[2]
Conditions	mass density [kg/m3]
274.15 K	999.899 ± 0.11
275.15 K	999.94 ± 0.11
276.15 K	999.964 ± 0.11
277.15 K	999.972 ± 0.13
278.15 K	999.964 ± 0.11
279.15 K	999.94 ± 0.11
280.15 K	999.901 ± 0.11
281.15 K	999.848 ± 0.11
282.15 K	999.781 ± 0.11
283.15 K	999.699 ± 0.11
323.15 K	988.03 ± 0.11
333.15 K	983.191 ± 0.11
